Data from patent US20030162834A1, “Natural physiologically active material effective on fish diseases and fish food containing the material” (priority 1998, published 2003).

How the values were obtained:
[1] = tested on: Cryptocaryon irritans; assay: Trial 1: in vitro immersion of theronts in fatty acid seawater solutions; assay type: cell-based; settings: 0.5 mM in seawater, 20 degrees centigrade; listed as C8
Method: (§1) For Cryptocaryon irritans, fatty acids having carbon number C2, C4 and C6-C10 were each dissolved in seawater at 0.5 mM concentration, and theronts of Cryptocaryon irritans were immersed in the seawater solutions. After 1 hour from the start of immersion, the efficacy of the fatty acids was investigated by counting the number of dead theronts. More than 200 individuals of parasites were transferred to each group.
(§2) For any of the groups, the trial was made under condition of 20 degrees centigrade.

[2] = tested on: parasites (Heterobothrium okamotoi, Cryptocaryon irritans); assay: Trial 1: overall statements on efficacy of fatty acids against parasites; assay type: cell-based; settings: Trial 1 summary; C12 at a low concentration, not the same condition
Method: Fatty acids having carbon number C2, C4 and C6-C10 were each dissolved in seawater at 1 mM concentration, and oncomiracidia of Heterobothrium okamotoi and larvae attaching to the gill were immersed in the seawater solutions. After 2 hours from the start of immersion, the efficacy of the fatty acids was investigated by counting the number of dead oncomiracidia and the number of larvae dropping down from the gill. More than 30 individuals of parasites were transferred to each group.
as §1, §2

[3] = tested on: Heterobothrium okamotoi; assay: Trial 3: oral octanoic acid, Heterobothrium okamotoi challenge trial on tiger puffer; assay type: in vivo; settings: 2.5 g octanoic acid per 1 kg pellets
Method: Fish tested: Tiger puffer weighing approximately 133.6 g in average.
Trial groups: Two groups, i.e., an octanoic-acid added group in which fish were fed diets added with octanoic acid, and a control group in which fish were fed diets not added with octanoic acid. The feeding rate was 1% of fish weight/day for each group.
Trial diets: The diets added with octanoic acid were prepared by spraying 2.5 g of octanoic acid to 1 kg of commercially available pellets for tiger puffer. The control group fish were fed the commercially available pellets for tiger puffer.
Challenge trial: Each 12 pieces of fish (normal fish) from among a shoal of fish, in which no diseases such as Heterobothrium okamotoi infection were found, were put in a 100-liter water tank, and were fed the respective trial diets. After 7 days, 6 pieces of fish (infected fish), which had been infected in advance with approximately 100 individuals of Heterobothrium okamotoi, were added to each trial group. Then, bleeding was continued for 73 days while feeding the trial diets. In this trial, the parasites Heterobothrium okamotoi in the infected fish were in the stage of adult. After 30 days from adding the infected fish, 4 pieces of normal fish were sampled from each group, and the number of parasites attaching to the gill was counted. During the trial period, the water temperature was in the range of 16.5-20.9 degrees centigrade and the water was exchanged at 20 cycles/day.
Evaluation was made by comparing mortality of the fish in respective groups during the trial period, and by counting the number of parasites attaching to the gill of the infected fish in each group for investigation of the remedy efficacy and the infection preventable efficacy.

[4] = tested on: Cryptocaryon irritans; assay: Trial 4: oral octanoic acid, Cryptocaryon irritans challenge trial on red sea bream; assay type: in vivo; settings: 5 g octanoic acid per 1 kg pellets
Method: Fish tested: Red sea bream weighing approximately 9.8 g in average.
Trial groups: Two groups, i.e., an octanoic-acid added group in which fish were fed diets added with octanoic acid, and a control group in which fish were fed diets not added with octanoic acid. The feeding rate was 3% of fish weight/day for each group.
Trial diets: The diets added with octanoic acid were prepared by spraying 5 g of octanoic acid to 1 kg of commercially available pellets for red sea bream. The control group fish were fed the commercially available pellets for red sea bream.
Challenge trial: Each 30 pieces of fish from among a shoal of fish, in which no diseases such as Cryptocaryon irritans infection were found, were put in a 100-liter water tank, and were fed the respective trial diets. After 5 days, approximately 2000 individuals of ([…] theronts) of Cryptocaryon irritans were put in each water tank to infect the fish while water flow was stopped for 1 hour. Then, bleeding was continued for 15 days. During the trial period, the water temperature was in the range of 22.5-23.2 degrees centigrade and the water was exchanged at 20 cycles/day.
Evaluation was made by sampling 5 pieces of fish from each group after 3 days from the start of the challenge, comparing the number of parasites attaching to the gill and the body surface of each infected fish, and comparing mortality of the fish during the trial period between the respective groups.

[5] = tested on: Cryptocaryon irritans; assay: Trial 8: octanoic acid versus its monoglyceride and triglyceride, oral, red sea bream; assay type: in vivo; settings: diet amount equal to 17.5 mM octanoic acid residues (2.5 g acid, 3.8 g monoglyceride, 2.7 g triglyceride per kg)
Description: Fish tested: Red sea bream weighing approximately 15.8 g in average.
Trial groups: Four groups, i.e., an octanoic-acid added group in which fish were fed diets added with octanoic acid, a monoglyceride added group in which fish were fed diets added with monoglyceride of octanoic acid, a triglyceride added group in which fish were fed diets added with triglyceride of octanoic acid, and a control group in which fish were fed diets added with neither octanoic acid nor glycerides. The feeding rate was 3% of fish weight/day for each group.
Trial diets: The diets added with octanoic acid were prepared by spraying 2.5 g (17.5 mM with respect to the diet weight) of octanoic acid to 1 kg of commercially available pellets for red sea bream. […]. Specifically, the diets added with monoglyceride and triglyceride were prepared respectively by spraying 3.8 g of monoglyceride and 2.7 g of triglyceride to 1 kg of the commercially available pellets for red sea bream. The control group fish were fed the commercially available pellets for red sea bream.
Challenge trial: Each 10 pieces of fish from among a shoal of fish, in which no diseases such as Cryptocaryon irritans infection were found, were put in a 100-liter water tank, and were fed the respective trial diets. After 5 days, approximately 2000 individuals of theronts of Cryptocaryon irritans were put into each water tank to infect the fish while water flow was stopped for 1 hour. Then, bleeding was continued for 31 days while feeding the respective trial diets. During the trial period, the water temperature was 24+−1 degrees centigrade and the water was exchanged at 20 cycles/day.
Evaluation was made by sampling 5 pieces of fish from each group after 18 and 31 days from the start of the challenge, and comparing the number of the parasites attaching to the gill of each fish.

[6] = tested on: Pseudocaligus fugu adults; assay: Trial 2: in vitro immersion in octanoic acid seawater; assay type: cell-based; settings: 800 PPM octanoic acid added to seawater, 20 degrees centigrade
Method: (§3) 800 PPM of octanoic acid was added to seawater and dissolved therein maximally. In this seawater solution, Bivagina tai larvae sampled from the gill of red sea bream, Heteraxine heterocerca larvae sampled from the gill of young yellowtail, Benedenia seriolae adults sampled from the body surface of young yellowtail, Kudoa shiomitsui spores sampled from the heart of tiger puffer, and Pseudocaligus fugu adults sampled from the body surface of tiger puffer were immersed under condition of 20 degrees centigrade, followed by observation. As control, another group was managed using seawater alone. More than 30 individuals of parasites were transferred to each group.

[7] = tested on: Kudoa shiomitsui spores; assay: as above; assay type: cell-based; settings: 800 PPM octanoic acid added to seawater, 20 degrees centigrade
Method: as §3

[8] = tested on: Benedenia seriolae adults; assay: as above; assay type: cell-based; settings: 800 PPM octanoic acid added to seawater, 20 degrees centigrade
Method: as §3

[9] = tested on: Heteraxine heterocerca larvae; assay: as above; assay type: cell-based; settings: 800 PPM octanoic acid added to seawater, 20 degrees centigrade
Method: as §3

[10] = tested on: Bivagina tai larvae; assay: as above; assay type: cell-based; settings: 800 PPM octanoic acid added to seawater, 20 degrees centigrade
Method: as §3

SMILES: CCCCCCCC(=O)O [octanoic acid]
- emergence of dead theronts [1]: emerged earliest
- efficacy against parasites [2]: most effective
- number of parasites attaching to the normal fish after 30 days, versus control [3]: apparently reduced
- number of parasites (adults and larvae) attaching to infected fish survived at the end of the trial, versus control ([3]; 73 days): apparently reduced
- numbers of parasites in normal fish survived at the end and fish died during the trial ([3]; 73 days): apparently reduced
- adults attaching to each survived infected fish at the end of the trial ([3]; 73 days, approximately 100 at the start): approximately 27 individuals
- survival rate of the infected fish at the end of the trial ([3]; 73 days, control 16.7%): 66.7%
- survival rate of the normal fish ([3]; cohabitation with infected fish 73 days, control 0%): 75%
- parasites on gill and body surface after 3 days from the challenge [4]: no parasites were found
- parasites at the end of the trial ([4]; 15 days): no parasites were found
- fish mortality during the trial ([4]; 15 days, control all dead at the 8-th day): no fish died
- number of parasites attaching to the gill after 18 and 31 days, versus control [5]: apparently fewer
- contraction of parasites [6]: no contraction
- time until reduction in swimming activity was found [6]: approximately 1 hour
- time until burst image of the spores was observed [7]: approximately 1 hour
- contraction of parasites [8]: became contracted apparently
- time until contraction occurred [8]: approximately 10 minutes
- contraction of parasites [9]: became contracted apparently
- time until contraction occurred [9]: approximately 10 minutes
- contraction of parasites [10]: became contracted apparently
- time until contraction occurred [10]: approximately 10 minutes
